This note sets out measurements from US20250381165A1, “Method of Use for Benzofuran Compounds” (Tampa Bay Research Institute, Inc., priority 2024, published 2025).

Structures are written as SMILES.

Data set [1] is described as follows: Detection of BzFβ in serum by HPLC. The data set is classed as in vivo, C57BL/6NCrl mice. Here is the method: Six- to ten-week-old male and female C57BL/6NCrl mice (Charles River Laboratories, Wilmington MA; cat. no. 027) were used for all animal studies. The mice were maintained in accord with the NIH Guide for the Care and Use of Laboratory Animals. Experimental procedures were performed in accord with research protocols approved by the Tampa Bay Research Institute's Institutional Animal Care and Use Committee. Mice were maintained in an INOVIVE individually ventilated cage system with 3 mice per cage containing 100% virgin wood pulp bedding (Harlan Teklad™, Harlan Sprague Dawley Inc., Indianapolis, IA; cat. no. 7099). Water and food (Harlan Teklad™, cat. no. 8640) were available ad libitum. The mice were maintained on a cycle of 12 h of light and 12 h of dark in an environment with a temperature of 74-76° […]. and 40-60% humidity. All cages underwent 40 air changes hourly in the negative pressure mode, in accordance with manufacturer's recommendations. Both the intake and exhaust air from the system were filtered through HEPA filters to maintain a clean environment. Stock solutions of BzFβ were solubilized in alkaline water (pH 10) and then sterile filtered through 0.22 µm syringe filters. BzFβ used for iv or im injections was diluted in 0.9% saline (normal saline). The stock solutions of the SIINFEKL peptide were prepared in 1× calcium/magnesium free Dulbecco's phosphate-buffered saline (DPBS; ThermoFisher Scientific, cat. no. 14190144).
After overnight fasting, six-to ten-week-old mice were gavaged with 1-2 mg of BzFβ solubilized in 200 μL alkaline water or were injected intramuscular (IM) or intravenous with 100 μg diluted in normal saline. After various times mice were anesthetized using 2.0% isoflurane with O2 at 1 L/min, and 200-500 μL of blood was collected in a microfuge tube containing 700 μL of 50 mM EDTA in DPBS as an anticoagulant. The blood samples were centrifuged at 4500×g for 20 min to separate the plasma from the cells. The resulting plasma (200 μL) was removed and extracted with 4 mL methanol. This mixture was vortexed for 30 s and centrifuged at 4000×g for 10 min at 4° C. The supernatant was collected and dried using a SpeedVac (SC210 Å) under a vacuum of 0.4 torr at 65° C. When dry, the sample was removed and resuspended in 100 μL methanol and then re-centrifuged to remove any precipitates. A 20 μL sample of this mixture was analyzed by HPLC.
BzFβ was detected in the serum using a Shimadzu high performance liquid chromatography (HPLC) system. The Shimadzu system consisted of two LC-20AR pumps, a SPD-M20A diode array UV-Vis detector, and a 20 μL injection loop onto a Phenomenex Luna […] Analytical PFP column 100 A (cat. no. OOF-4448-E0). Analysis and data collection were conducted using Shimadzu LabSolutions software. Samples ([…]) were injected onto the column and separated using a gradient of acetonitrile (ACN) and water as the mobile phase. The gradient started with 10% ACN and increased stepwise to 80% ACN for peak clarity. Buffer B was water adjusted to pH 2.5 using phosphoric acid. The column was kept at a constant temperature of 30° C. (Chai, et al., Comprehensive study of the intestinal absorption of four phenolic compounds after oral administration of Ananas comosus leaf extract in vivo and in vitro. Afr J Pharm Pharmacol. 2013 Jul. 15; 7(26):1781-92).
Following up on the prediction that BzFβ should be able to be absorbed through the GI tract and gain access to the systemic circulation, C57Bl/6crl mice were gavaged (po) with either 200 μL of alkaline water (negative control) or with 2 mg of BzFβ solubilized in 200 μL alkaline water. Fifteen minutes later, peripheral blood was obtained. The serum was extracted with methanol, lyophilized, and then examined by HPLC for the presence of BzFβ. […] BzFβ was then administered to another group of mice iv (100 μg), im ([…]), and po (1 mg). After 15 min, the serum was collected, extracted with methanol, and then analyzed by HPLC. […]

In another data set the test system is RAW 264.7. The data set can be described thus: CellTiter-Glo cell viability, RAW 264.7. It is filed as cell-based, murine. Conditions: Mus musculus, RAW264.7. Here is the method: BzFβ was then examined for its effect on the viability of several murine and human cell lines and primary murine splenocytes. The cytotoxicity of BzFβ was assessed using the CellTiter-Glo […] assay system according to manufacturer's instructions to determine BzFβ's effect on the viability of several murine and human cell lines and primary murine splenocytes.
DC2.4 cell line (Dr. Kenneth Rock, University of Massachusetts), RAW 264.7 cell line (American Type Culture Collection (ATCC), Manassas, VA; TIB 71), and IMG cell line (Millipore™, Merck KGaA, Burlington, MA; cat. no. SC-C134) were each cultured in complete Dulbecco's Modified Eagle Medium (cDMEM) containing […] glucose (Gibco™, Thermo Fisher Scientific Inc., Waltham, MA; cat. no. 10566-016) and supplemented with GlutaMAX, 50 U/mL penicillin and 50 µg/mL streptomycin (Gibco™; cat. no. 15070-063) and 10% heat inactivated fetal bovine serum (FBS) (R&D Systems, Inc., Minneapolis, MN; cat. no. […]
The cytotoxicity of BzFβ was assessed using the CellTiter-Glo cell […] viability assay system […] cat. no. […] CellTiter-Glo was added 1:1 in the media and the level of chemiluminescence was measured using luminescence at wavelengths of 200 nm to 700 nm through a photomultiplier on BioTek's Synergy HTX multimode microplate reader. […]

In the case of `O=C(O)/C=C/c1ccc2occc2c1` [BzFβ, (2E)-3-(1-benzofuran-5-yl)prop-2-enoic acid], the persistence in serum result in data set [1] (1, 2 and 3 h post im injection of 1 mg) is recorded as “still detectable”. Also, in data set [1] (GI tract and bloodstream), the “stability in vivo compared with dipeptides” value is “much more stable in the GI tract and bloodstream”. Moreover, the “presence in serum by HPLC” value in data set [1] (iv (100 μg), im (100 g), po (1 mg), 15 min) is on record as “presence of the appropriate peak”. Moreover, in data set [1] (oral administration), the “earliest detection in blood plasma” value was 30 min and the “latest detection in blood plasma” value was determined as 3 h. Further, the “presence in serum by HPLC” value in data set [1] (po 2 mg, fifteen minutes) was “revealed the presence of BzFβ”. Further, in the data set on RAW 264.7, the IC50 turned out to be 783 µM.

Broadly, the IC50 is the concentration that inhibits the measured activity by half.
